PMC7582905, “Effect of Disulfide Cyclization of Ultrashort Cationic Lipopeptides on Antimicrobial Activity and Cytotoxicity” (International Journal of Molecular Sciences, 2020)
Values after ≈ are worked out from the molar mass of the structure shown. Read-outs that look alike come from different tables or passages of the source. Where a SMILES comes first, the peptide text is derived from it. Bridges are numbered along the chain shown (N, C = ends). The star is where a group is joined. Palmitoyl = CCCCCCCCCCCCCCCC(=O)*

How the values were obtained:
[1] = tested on: Staphylococcus aureus ATCC 25923; assay type: cell-based
Method in brief: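 MIC = lowest lipopeptide concentration (range 0.5–256 μg/mL) with no noticeable growth, scored by eye. Bacteria tested in MHB at 5 × 10^5 CFU/mL for 18 h; Candida in RPMI-1640 + 2% D-glucose at 2 × 10^3 CFU/mL for 24 h; both at 37 °C.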

[2] = tested on: Candida tropicalis PCM 2709-FY; assay type: cell-based
Method in brief: (§1)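 MBIC via resazurin (4 g/L), read 1 h after PBS washes. Inoculum: ~500-fold diluted 24 h culture, density set by OD600 (bacteria) or OD660 (fungi). Compounds co-incubated from seeding, 24 h, 37 °C, MHB or RPMI-1640. Triplicate.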

[3] = tested on: Staphylococcus epidermidis ATCC 14990; assay type: cell-based
Method in brief: as §1

[4] = tested on: Staphylococcus aureus ATCC 25923; assay type: cell-based; remark: listed apart in the source
Method in brief: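 Biofilms were grown 24 h at 37 °C in 96-well plates from 2.0 × 10^5 CFU/mL (fungi) or 5.0 × 10^5 CFU/mL (bacteria) inocula, washed with PBS, then exposed 24 h at 37 °C to compounds at 0.5–256 μg/mL. MBEC was taken as the lowest concentration giving ≤10 ± 0.5% resazurin reduction (A570/A600) after 1 h; triplicate.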

[5] = tested on: E. coli ML-35 (ATCC 43827); assay type: cell-based, Escherichia coli
[6] = tested on: Staphylococcus aureus ATCC 25923; details: values marked *: performed by the group in the previous study; ref [29]; cited from earlier work
Description: Table 3 Antibiofilm activity of lipopeptides. | column: MBEC (μg/mL) / S. aureus

[7] = tested on: Staphylococcus aureus ATCC 25923; details: values marked *: performed by the group in the previous study; ref [29]; cited from earlier work; remark: listed apart in the source
Description: Table 2 Antimicrobial activity of lipopeptides. | column: MIC (μg/mL) / S. aureus

[8] = tested on: Candida albicans ATCC 10231; assay: Transmission electron microscopy (TEM); assay type: cell-based; details: 2 × MIC, 5.0 × 10^6 CFU/mL, 1 h at room temperature
Method: TEM was used to examine ultrastructural changes in the Candida albicans ATCC 10231 cells treated with selected lipopeptides (L2, C2, L4, C4) and melittin (positive control). Fungal cells (Candida albicans ATCC 10231) were incubated in RMPI-1640 overnight. The cells were centrifuged (3500 rpm, 7 min) and resuspended in fresh RMPI-1640 medium to obtain dense cell suspension (5.0 × 10^6 CFU/mL). The high cell-density culture was prepared to facilitate TEM observations. Peptides’ concentrations were 2 × MIC. Samples were incubated for 1 h at room temperature. Importantly, MIC of selected peptides (L2, C2, L4, C4, and melittin) were also determined with dense inoculum of yeasts (5.0 × 10^6 CFU/mL). After the treatment, the fungal cells were centrifuged (3500× rpm, 10 min) and washed twice with PBS. Fungal cells were fixed with 2.5% glutaraldehyde buffered at pH 6.5 with 0.1 M sodium cacodylate (Polysciences, Warrington, PA, USA) for 6 h at room temperature. Postfixation was performed with a 1% osmium tetroxide (Polysciences, Warrington, PA, USA) solution for 2 h at 4 °C. The cells were then centrifuged and resuspended in 0.1 M cacodylate buffer (pH 6.5). After re-centrifugation, cells were dehydrated with ethanol. Yeasts were embedded in Epon 812 resin (Sigma-Aldrich) at room temperature. An ultramicrotome Leica UC7 was used to prepare ultrathin sections (55 nm). […]

keratinocytes = details: reported in the literature; ref [13]; cited from earlier work
Description: However, an identical hemolysis pattern is consistent only with peptides L4, C4, L7, and C7. A common feature of these compounds is the presence of arginine residue in the second and third position, which differentiates them from the rest of compounds used in this study. Overall effect of disulfide cyclization on hemolysis seems to be dependent on arginine(s) position. In general, disulfide cyclization of lipopeptides results in the reduced cytotoxicity a ...

[9] = prevention of biofilm formation on polystyrene plates, 24 h at 37 °C, resazurin, triplicate

Structure (SMILES)	MIC S. aureus ([1]; ATCC 25923, 18 h)	MBIC C. tropicalis ([2]; PCM 2709-FY, 24 h)	MBIC S. epidermidis ([3]; ATCC 14990, 24 h)	MBEC S. aureus ([4]; ATCC 25923, 24 h)	MBEC S. aureus [6]	MIC S. aureus [7]	also measured
CCCCCCCCCCCCCCCC(=O)N[C@H]1CSSC[C@@H](C(N)=O)NC(=O)[C@H](CCCCN)NC(=O)[C@H](CCCCN)NC(=O)[C@H](CCCCN)NC(=O)[C@H](CCCCN)NC1=O [C2, C16-CKKKKC-NH2] (Palmitoyl-CKKKKC-NH2; disulfide 1-6)	–	–	–	–	–	–	MIC S. aureus ([1]; broth microdilution (CLSI), MHB, 5 × 10^5 CFU/mL, 37 °C, 18 h, visual, triplicate): 32 µg/mL (≈ 32.9 µM); MBIC C. tropicalis [2, 9]: 8 µg/mL; MBIC S. epidermidis [3, 9]: 4 µg/mL; MBEC S. aureus ([4]; 24 h biofilm on polystyrene plates, 24 h exposure at 37 °C, resazurin, triplicate): 64 µg/mL; MIC against E. coli ML-35 [5]: 8 µg/mL (≈ 8.23 µM)
CCCCCCCCCCCCCCCC(=O)N[C@H]1CSSC[C@@H](C(N)=O)NC(=O)[C@H](CCCCN)NC(=O)[C@H](CCCCN)NC(=O)[C@H](CCCNC(=N)N)NC(=O)[C@H](CCCNC(=N)N)NC1=O [C7, C16-CRRKKC-NH2] (Palmitoyl-CRRKKC-NH2; disulfide 1-6)	8 µg/mL (≈ 7.78 µM)	8 µg/mL	16 µg/mL	128 µg/mL	–	–	–
CCCCCCCCCCCCCCCC(=O)N[C@H]1CSSC[C@@H](C(N)=O)NC(=O)[C@H](CCCCN)NC(=O)[C@H](CCCCN)NC(=O)[C@H](CCCCN)NC(=O)[C@H](CCCNC(=N)N)NC1=O [C3, C16-CRKKKC-NH2] (Palmitoyl-CRKKKC-NH2; disulfide 1-6)	–	4 µg/mL	8 µg/mL	–	128 * μg/mL	8 * μg/mL	–
CCCCCCCCCCCCCCCC(=O)N[C@@H](CCCCN)C(=O)N[C@@H](CCCCN)C(=O)N[C@@H](CCCCN)C(=O)N[C@@H](CCCNC(=N)N)C(N)=O [L6, C16-KKKR-NH2] (Palmitoyl-KKKR-NH2)	–	16 µg/mL	8 µg/mL	–	32 * μg/mL	16 * μg/mL	–
CCCCCCCCCCCCCCCC(=O)N[C@H]1CSSC[C@@H](C(N)=O)NC(=O)[C@H](CCCCN)NC(=O)[C@H](CCCNC(=N)N)NC(=O)[C@H](CCCCN)NC(=O)[C@H](CCCCN)NC1=O [C5, C16-CKKRKC-NH2] (Palmitoyl-CKKRKC-NH2; disulfide 1-6)	–	8 µg/mL	16 µg/mL	–	128 * μg/mL	8 * μg/mL	–
CCCCCCCCCCCCCCCC(=O)N[C@@H](CCCCN)C(=O)N[C@@H](CCCNC(=N)N)C(=O)N[C@@H](CCCCN)C(=O)N[C@@H](CCCCN)C(N)=O [L4, C16-KRKK-NH2] (Palmitoyl-KRKK-NH2)	8 µg/mL (≈ 10 µM)	8 µg/mL	8 µg/mL	64 µg/mL	–	–	MIC against E. coli ML-35 [5]: 4 µg/mL (≈ 5.02 µM)
CCCCCCCCCCCCCCCC(=O)N[C@H]1CSSC[C@@H](C(N)=O)NC(=O)[C@H](CCCCN)NC(=O)[C@H](CCCCN)NC(=O)[C@H](CCCNC(=N)N)NC(=O)[C@H](CCCCN)NC1=O [C4, C16-CKRKKC-NH2] (Palmitoyl-CKRKKC-NH2; disulfide 1-6)	16 µg/mL (≈ 16 µM)	4 µg/mL	8 µg/mL	64 µg/mL	–	–	ultrastructural changes in TEM micrographs [8]: numerous vesicles are visible inside and outside the cell; MIC against E. coli ML-35 [5]: 8 µg/mL (≈ 8 µM)
CCCCCCCCCCCCCCCC(=O)N[C@@H](CCCCN)C(=O)N[C@@H](CCCCN)C(=O)N[C@@H](CCCCN)C(N)=O [L1, C16-KKK-NH2]	–	16 µg/mL	16 µg/mL	–	64 * μg/mL	32 * μg/mL	toxicity against keratinocytes (keratinocytes): 3.2 µg/mL
CCCCCCCCCCCCCCCC(=O)N[C@@H](CCCCN)C(=O)N[C@@H](CCCCN)C(=O)N[C@@H](CCCCN)C(=O)N[C@@H](CCCCN)C(N)=O [L2, C16-KKKK-NH2] (Palmitoyl-KKKK-NH2)	16 µg/mL (≈ 20.8 µM)	16 µg/mL	16 µg/mL	64 µg/mL	–	–	MIC against E. coli ML-35 [5]: 4 µg/mL (≈ 5.21 µM)
CCCCCCCCCCCCCCCC(=O)N[C@@H](CCCCN)C(=O)N[C@@H](CCCCN)C(=O)N[C@@H](CCCNC(=N)N)C(=O)N[C@@H](CCCCN)C(N)=O [L5, C16-KKRK-NH2] (Palmitoyl-KKRK-NH2)	–	16 µg/mL	16 µg/mL	–	32 * μg/mL	16 * μg/mL	–
CCCCCCCCCCCCCCCC(=O)N[C@H]1CSSC[C@@H](C(N)=O)NC(=O)[C@H](CCCCN)NC(=O)[C@H](CCCCN)NC(=O)[C@H](CCCCN)NC1=O [C1, C16-CKKKC-NH2] (Palmitoyl-CKKKC-NH2; disulfide 1-5)	–	32 µg/mL	16 µg/mL	–	64 * μg/mL	8 * μg/mL	–
CCCCCCCCCCCCCCCC(=O)N[C@@H](CCCNC(=N)N)C(=O)N[C@@H](CCCNC(=N)N)C(=O)N[C@@H](CCCCN)C(=O)N[C@@H](CCCCN)C(N)=O [L7, C16-RRKK-NH2] (Palmitoyl-RRKK-NH2)	4 µg/mL (≈ 4.85 µM)	8 µg/mL	16 µg/mL	128 µg/mL	–	–	–
CCCCCCCCCCCCCCCC(=O)N[C@@H](CCCNC(=N)N)C(=O)N[C@@H](CCCCN)C(=O)N[C@@H](CCCCN)C(=O)N[C@@H](CCCCN)C(N)=O [L3, C16-RKKK-NH2] (Palmitoyl-RKKK-NH2)	–	16 µg/mL	16 µg/mL	–	64 * μg/mL	16 * μg/mL	–
CCCCCCCCCCCCCCCC(=O)N[C@H]1CSSC[C@@H](C(N)=O)NC(=O)[C@H](CCCNC(=N)N)NC(=O)[C@H](CCCCN)NC(=O)[C@H](CCCCN)NC(=O)[C@H](CCCCN)NC1=O [C6, C16-CKKKRC-NH2] (Palmitoyl-CKKKRC-NH2; disulfide 1-6)	–	8 µg/mL	8 µg/mL	–	64 * μg/mL	16 * μg/mL	–
